Laboratory results taken from the supplement of paper PMC10627819.

What was measured:
B. subtilis 168 [1] = assay: fitness (endpoint OD595 vs no drug) (fraction); higher = more growth
In short: (§1)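 Fitness is computed from the optical density at which cultures reach stationary phase, divided by the robust mean of no-drug control wells. Any value above 1 is set to 1. Cultures started at OD595 0.01 in 384-well plates with TSB, LB Lennox or CY at 37 °C, and OD595 was read every 30 min for 14 h against a first-reading background.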

S. aureus Newman [2] = assay: as above; details: one replicate
In short: as §1

B. subtilis 168 [3] = assay: Bliss interaction score (quartile over a dose matrix) (fitness difference); higher = more antagonism (negative = synergy)
In short: (§2)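 Fitness here means normalised growth, inferred for single drugs from the combination data. Growth was OD595 at entry into stationary phase, divided by the plate's robust no-drug mean and capped at 1. The Bliss score is observed minus expected fitness, with the expectation being the product, and its quartiles span technical, biological and donor/recipient replicates.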

S. aureus DSM 20231 = assay: as above
In short: as §2

S. aureus Newman [4] = assay: as above
In short: as §2

S. pneumoniae D39V = assay: as above
In short: as §2
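Wherever Bliss interaction score (quartile over a dose matrix) is given: first quartile when negative (synergy) and third quartile when positive (antagonism).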
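Wherever fitness (endpoint OD595 vs no drug) is given: OD595 on entry to stationary phase over no-drug wells; at most 1.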

CO/N=C(\C(=O)N[C@@H]1C(=O)N2C(C(=O)O)=C(COC(N)=O)CS[C@H]12)c1ccco1 [Cefuroxime] + CCN(CC)CCOC(=O)c1ccc(N)cc1 [Procaine]
fitness
Details | first compound 0.04875 µg/mL | first compound 0.0975 µg/mL | first compound 0.195 µg/mL
B. subtilis 168 [1], partner 85.5 µg/mL | 0.756 | 0.685 | 0.527
B. subtilis 168 [1], partner 171 µg/mL | 0.762 | 0.65 | 0.512
B. subtilis 168 [1], partner 342 µg/mL | 0.75 | – | 0.519
S. aureus Newman [2], partner 85.5 µg/mL | 0.953 | 0.92 | 0.904
S. aureus Newman [2], partner 171 µg/mL | 0.962 | 0.904 | 0.905
S. aureus Newman [2], partner 342 µg/mL | 0.947 | 0.907 | 0.902

fitness, B. subtilis 168 [1], one replicate
Details | first compound 1.562 µg/mL | first compound 3.125 µg/mL | first compound 6.25 µg/mL
partner 85.5 µg/mL | 0.348 | 0.28 | 0.225
partner 171 µg/mL | 0.288 | 0.256 | 0.153
partner 342 µg/mL | 0.293 | 0.233 | 0.202

Details | Bliss interaction score
B. subtilis 168 [3] | 0.0619
S. aureus DSM 20231 | 0.0947
S. aureus Newman [4] | -0.0324
S. pneumoniae D39V | -0.0452

CO/N=C(\C(=O)N[C@@H]1C(=O)N2C(C(=O)O)=C(COC(N)=O)CS[C@H]12)c1ccco1 [Cefuroxime] + Cc1cc(NS(=O)(=O)c2ccc(N)cc2)no1 [Sulfamethoxazol]
fitness
Details | first compound 0.04875 µg/mL | first compound 0.0975 µg/mL | first compound 0.195 µg/mL
B. subtilis 168 [1], partner 1 µg/mL | 0.708 | 0.67 | 0.404
B. subtilis 168 [1], partner 2 µg/mL | 0.709 | 0.632 | 0.398
B. subtilis 168 [1], partner 4 µg/mL | 0.687 | 0.636 | 0.5
S. aureus Newman [2], partner 1 µg/mL | ≥ 1 | 0.954 | 0.879
S. aureus Newman [2], partner 2 µg/mL | 0.953 | 0.966 | 0.836
S. aureus Newman [2], partner 4 µg/mL | 0.986 | 0.935 | 0.84

fitness, B. subtilis 168 [1], one replicate
Details | first compound 0.195 µg/mL | first compound 0.39 µg/mL | first compound 0.78 µg/mL | first compound 1.562 µg/mL | first compound 3.125 µg/mL | first compound 6.25 µg/mL
partner 0.5 µg/mL | 0.405 | 0.438 | 0.356 | – | – | –
partner 1 µg/mL | – | 0.0396 | 0.107 | 0.267 | 0.221 | 0.202
partner 2 µg/mL | – | 0.29 | 0.262 | 0.251 | 0.198 | 0.132
partner 4 µg/mL | – | – | – | 0.252 | 0.206 | 0.162

Details | Bliss interaction score
B. subtilis 168 [3] | -0.0536
S. aureus DSM 20231 | 0.111
S. aureus Newman [4] | -0.0351
S. pneumoniae D39V | -0.0409
